# Source: patent publication US20220362329A1, “TREATING ACUTE LIVER DISEASE WITH TLR-MIK INIHIBITORS” (Yeda Research and Development Co. Ltd., priority 2020, published 2022)
# What was measured:
# Ly6C-positive monocytes = experiment: Measurement of monocyte infiltration by FACS in ALF mouse models; assay type: in vivo, mice; conditions: for monocyte infiltration: APAP-induced ALF model, inhibitor i.p. 1 hour after 500 mg/kg APAP
# Protocol: (§1) Mouse models—8 weeks old C57BL6 male mice were injected intraperitoneally with 500 mg/kg body mass acetaminophen (APAP) in PBS or 300 mg/kg of thioacetamide (TAA) in PBS, 20 hours prior to sample collection. To avoid known circadian effects, all injections were performed between 1 pm and 2 pm. Control mice were injected with vehicle (PBS). For antibiotic treatment, mice were given a cocktail of ampicillin (1 g/l), kanamycin (1 g/l), vancomycin (0.5 g/l) and metronidazole (1 g/l) in drinking water for two weeks. MyD88 and Trif double knockout mice were 8 weeks old, males on C57BL6 background^55. All experimental procedures involving mice were approved by the local IACUC.
# Measurement of monocyte infiltration—Livers harvested from mice were finely chopped with sterile scissors and digested with 4 ml of pre-warmed 0.4 mg/ml protease and 0.1 U/ml collagenase D (EBS buffer: 8 g/l NaCl, 0.4 g/l KCl, 88 mg/l NaH2PO4.H2O, 120 mg/l Na2HPO4.H2O, 2.38 g/l HEPES, 0.35 g/l NaHCO3, 0.42 g/l CaCl2) for 30 minutes at 37° C. while shaking Following, 10 ml of cold PBS was added and the suspension was filtered through a 100 μm mesh. To deplete hepatocytes, samples were centrifuged at 30 g for 5 minutes and the supernatant was transferred to new tubes. Cells were collected by centrifugation at 580 g. To lyse red blood cells, 1 ml of Gibco™ ACK Lysing Buffer was added and cells were incubated at room temperature for one minute. Subsequently, cold PBS was added and cells were collected by centrifugation at 580 g.
# Receptors on the cells were first blocked with TruStain FcX anti-mouse CD16/32, then the cells were washed with FACS buffer (PBS without calcium and magnesium, 1% FCS), collected by centrifugation at 580 g and stained with CD45-PECy7 (Biolegend, 30F11, cat. 103114), F4/80-FITC (Serotec, Cl:A3-1, cat. G00018) and Ly6C-APC (Biolegend, HK14, cat. 128016) antibodies for 1 hour on ice. Finally, the cells were washed with FACS buffer, collected by centrifugation at 580 g, resuspended in FACS buffer, filtered through 40 μm mesh and measured on DB LSRFortessa. Data was analysed using FlowJo software.
# (§2) MYC inhibition—MYC inhibitor KJ-Pyr-9 or vehicle control was injected intraperitoneally 2 hours following injection of APAP or PBS vehicle control. Briefly, 10 mg of KJ-Pyr-9 (Tocris, cat 5306) was dissolved in 1 ml of DMSO and then combined with Tween 80 and 5% dextrose 1:1:8 by volume. Mice were injected with 0.5 ml per 20 g, so the final dose of KJ-Pyr-9 was 25 mg per kilogram of body mass.
# Inhibition of MAPK pathway proteins—The inhibitors listed in Table 1 hereinbelow were injected intraperitoneally 1 hour following injection of 500 mg/kg APAP or corresponding PBS vehicle. Briefly. The inhibitors were dissolved in 5% DMSO in PBS to a final injection volume of 400 μl for 20 g mouse. […]
# ALF mouse models [1] = experiment: Histology score of H&E stained liver sections in ALF mouse models; assay type: in vivo, mice; conditions: for liver damage, histopathological analysis: APAP-induced ALF model, inhibitor i.p. 1 hour after 500 mg/kg APAP
# Protocol: as §1
# Histology—Sample from the left lobe of the liver was fixed in 4% paraformaldehyde, embedded in paraffin, sectioned and stained with hematoxylin and eosin (H&E). Slides were scored by a blinded veterinary pathologist for necrosis and hemorrhage on a scale from 0 (healthy) to 5 (most severe).
# as §2
# (§3) Inhibition of MAPK pathway proteins—The inhibitors listed in Table 1 hereinbelow were injected intraperitoneally 1 hour following injection of 500 mg/kg APAP or corresponding PBS vehicle. Briefly. The inhibitors were dissolved in 5% DMSO in PBS to a final injection volume of 400 μl for 20 g mouse. Control mice were injected with 5% DMSO in PBS vehicle.
# ALF mouse models [2] = experiment: Liver enzymes activity measurement (serum ALT and AST) in ALF mouse models; assay type: in vivo, mice; conditions: for ALT activity in serum / AST activity in serum: APAP-induced ALF model, inhibitor i.p. 1 hour after 500 mg/kg APAP
# Protocol: as §1
# MYC inhibition—MYC inhibitor KJ-Pyr-9 or vehicle control was injected intraperitoneally 2 hours following injection of APAP or PBS vehicle control. […] Mice were injected with 0.5 ml per 20 g, so the final dose of KJ-Pyr-9 was 25 mg per kilogram of body mass.
# as §3
# ALF mouse models [3] = experiment: Survival of APAP-administered mice; assay type: in vivo; conditions: n=15 per group
# Protocol: as §1, §2
# [4] = system: stellate, endothelial and Kupffer cells; experiment: Single cell RNA sequencing of liver cells; assay type: in vivo, mice; conditions: for number of differentially expressed genes: pseudobulk counts
# Protocol: as §1
# Following, liver was dissected, placed in cold EBS solution, shaken vigorously with forceps for separation of single cells, followed by filtration through a 100 μm mesh. Hepatocytes were depleted by centrifugation at 30 g for 5 minutes. Cells were then collected by centrifugation at 580 g and resuspended in cold PBS. To enrich for stellate cells, cells with retinoid fluorescence in the Pacific Blue channel were sorted using a BD FACSAria III. Following, stellate cells were mixed with unsorted cells, spun down, resuspended in PBS with 0.04% BSA and counted using Neubauer chamber.
# 10× library preparation and sequencing—Single cells were captured and processed using the 10× Genomics Chromium 3′ Single Cell RNA seq protocol according to the manufacturers' manual. Subsequently, RNA was sequenced using NextSeq® 500/550 High Output Kit v2 (Illumina cat no. 20024906).
# as §2
# Mapping: Single cell RNA sequencing data were demultiplexed, mapped to the GRCm38 mouse genome and UMIs were counted using the Cell Ranger Single-Cell Software Suite 2.1.1. Filtering and doublet removal: Cells with less than 100 detected transcripts and more than 10% mitochondrial reads were removed. Clustering analysis was used to identify populations of thrombocytes, erythrocytes, neutrophils and mast cells. Following, a second filtering was effected using 600 detected transcripts. […] The second step was necessary, as there were many low quality cells with low threshold. Following, doublets were identified by finding clusters of cells expressing gene expression patterns of two cell types at the same time. Marker sets used were Dcn, Colec11, Ecm1, Cxcl12, Sod3, Angptl6, Rgs5, Reln, Tmem56, Rbp1, G0s2, Rarres2, Acta2, Tagln for stellate cells; Gpihbp1, Aqp1, Clec4g, Dnase113, Fabp4, Ptprb, Kdr, Gpr182 for endothelial cells; Alb, Ttr, Ambp, Rbp4, Cyp2e1, Spp1 for hepatocytes; Cd3e, Cd3g, Cd3d, Lat, Thy1, Cxcr6, Nkg7, Cd4, Cd8b1, Klra4, Ncr1, Gzmb, Lck, Txk, Ms4a4b, Ccl5 for T cells; Cd79b, Cd79a, Ms4a1, Siglecg, Fcmr, Cd19, Fcer2a for B cells; Adgre1, Cd51, Clec4f, Timd4, Folr2, C1qa, C1qb, C1qc, Vsig4, Xcr1, Cd209a, Itgax, Siglech, Chil3, F13a1, S100a4, Lgals3, Gda, S100a9, Retnlg for macrophages, DCs and neutrophils; Alas2, Hbb-bt, Hbb-bs, Hba-a2, Hba-a1 for erythrocytes. Clustering—All cells from all 22 samples were first clustered using R package Seurat v2.3.4 FindClusters function^56. Genes that were present in less than 3 cells were removed and then highly variable genes were identified as having mean of non-zero values between 0.0125 and 3 and standard deviation higher than 0.5. Dimensionality reduction was effected with PCA and first 50 PCs were used for clustering.
# As the liver population is very complex, it was decided to perform stepwise clustering. First, expression of Ecm1, Ptprc, Ptprb, Epcam, Msln and Alb in the obtained clusters was determined. […]
# APAP-induced ALF = conditions: intravenous; cited from earlier work
# [5] = steady state, endothelial cells
# [6] = both ALF models (APAP, TAA), KJ-Pyr-9 25 mg/kg i.p.
smiles,measurement,setting,value
"CC[C@@H]1[C@H](F)C(=O)N[C@@H]1COc1nccc2cc(C(N)=O)c(OC)cc12 [IRAK4 inhibitor, PF 06650833]",monocyte infiltration,Ly6C-positive monocytes,significant reduction
same,"liver damage, histopathological analysis",ALF mouse models [1],significantly reduced liver damage
same,ALT activity in serum,ALF mouse models [2],significantly reduced
same,AST activity in serum,ALF mouse models [2],significantly reduced
"NC(=O)c1ccc(-c2cc(-c3ccc([N+](=O)[O-])cc3)nc(-c3ccco3)c2)cc1 [MYCi, KJ-Pyr-9]",infiltration of Ly6C-positive monocytes (F4/80 and Ly6C double-positive cells within the immune CD45-positive population),"Ly6C-positive monocytes; ALF mice (FIGS. 4C APAP, 19A TAA), KJ-Pyr-9 25 mg/kg i.p. 2 hours after APAP",dramatic reduction
same,"hepatic damage, tissue histology by H&E staining","ALF mouse models [1]; during ALF (FIGS. 4F-G APAP, 19C-D TAA), KJ-Pyr-9 25 mg/kg i.p.",reduced hepatic damage
same,mortality,ALF mouse models [3],attenuated
same,expression of metallothionein 1 and 2 (Mt1 and Mt2),[4]; ALF,remained unaffected
same,neutrophil infiltration,[4]; ALF,not affected
same,total gene expression level,[4]; ALF,lower total gene expression level
same,expression of neutrophil attractant chemokine Cxcl2,"[4]; ALF, Kupffer cells",did not get downregulated
same,expression of the 82 genes constituting the common activation signature,"[4]; ALF, activated stellate, Kupffer and endothelial cell subsets",markedly attenuated
same,drop of median number of detected transcripts,"[4]; ALF, stellate cells",~4 times
same,upregulation of senescence and cell cycle arrest marker Cdkn1a (coding p21),"[4]; ALF, stellate cells",attenuated
same,median number of detected transcripts,"[4]; ALF, stellate cells, 3500 without MYC inhibition",945
same,"activated populations (AAs, AAe, AAk)",[4]; during ALF induction,did not arise
same,Map3k8 expression (coding for TPL2),"[4]; during ALF, activated resident populations",strong induction
same,infiltration of Ly6C-positive monocytes to the liver (single cell transcriptomic data),[4]; either APAP- or TAA-induced ALF,near-total reduction
same,effect on the gene expression landscape,[4]; in the absence of liver failure,did not feature a notable effect
same,differentially expressed genes,"[4]; steady state, Kupffer cells",downregulation of genes related to antigen processing and presentation
same,number of differentially expressed genes,"[4]; steady state, Kupffer cells",94 genes
same,differentially expressed genes,[4]; [5],downregulation of genes of the AP1 family
same,number of differentially expressed genes,[4]; [5],5 genes
same,gene ontology analysis of differentially expressed genes,"[4]; steady state, stellate cells",downregulation of genes coding for ribosome proteins and other components of the translation machinery
same,number of differentially expressed genes,"[4]; steady state, stellate cells",148 genes
same,Serum ALT activity,ALF mouse models [2]; [6],attenuated
same,Serum AST activity,ALF mouse models [2]; [6],attenuated
CC(=O)N[C@@H](CS)C(=O)O [N-acetylcysteine],adverse effects including anaphylactic reaction,APAP-induced ALF,≤ 15 % of the cases
same,effectiveness of the intervention,APAP-induced ALF,only very partially effective
"CN1C(=O)C(Cc2c[nH]c3ccccc23)NC1=S (centres unmarked) [RIP1 inhibitor, Nec1]",ALT activity in serum,ALF mouse models [2],significantly reduced
same,AST activity in serum,ALF mouse models [2],significantly reduced
"COc1cc(O)c2c(c1)/C=C/C[C@H](O)[C@H](O)C(=O)/C=C\C[C@H](C)OC2=O [TAK1 inhibitor, 5Z-7-Oxozeaenol]",monocyte infiltration,Ly6C-positive monocytes,significant reduction
same,"liver damage, histopathological analysis",ALF mouse models [1],significantly reduced liver damage
same,AST activity in serum,ALF mouse models [2],significantly reduced
"C[S+]([O-])c1ccc(-c2nc(-c3ccncc3)c(-c3ccc(F)cc3)[nH]2)cc1 (centres unmarked) [p38 inhibitor, SB203580]",monocyte infiltration,Ly6C-positive monocytes,significant reduction
same,"liver damage, histopathological analysis",ALF mouse models [1],significantly reduced liver damage
same,ALT activity in serum,ALF mouse models [2],significantly reduced
same,AST activity in serum,ALF mouse models [2],significantly reduced
